# Legend:
# [1] = test system: IL-2 stimulated pSTAT5 in Tall-1 T cells; assay: Cellular JAK3 potency assay: inhibition of IL-2 stimulated pSTAT5 in Tall-1 T cells; format: cell-based, human; details: for Tall-1 (pIC50): IL-2 stimulated pSTAT5 in Tall-1 T cells; for IC50: Homo sapiens, TALL-1, IL-2 stimulated pSTAT5 in Tall-1 T cells, read-out: Tall-1 (pIC50) (converted)
# Procedure, shortened: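 In human Tall-1 T cells, IL-2 (300 ng/ml final, 30 min) drives STAT5 phosphorylation after a 1 h compound pretreatment. Lysates are assayed for pSTAT5 by AlphaLisa, and IC50 derived from signal versus concentration is expressed as pIC50.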
# [2] = target: T1, Tyk2 (Homo sapiens, UniProt P29597); assay: Biochemical Tyk2 kinase assay (LanthaScreen); details: for Ki: read-out: Tyk 2 (pKi) (converted)
# T1 construct: GST; purchased Life Technologies
# Procedure: (§1) A panel of four LanthaScreen JAK biochemical assays (JAK1, 2, 3 and Tyk2) were carried in a common kinase reaction buffer (50 mM HEPES, pH 7.5, 0.01% Brij-35, 10 mM MgCl2, and 1 mM EGTA). Recombinant GST-tagged JAK enzymes and a GFP-tagged STAT1 peptide substrate were obtained from Life Technologies.
# (§2) Serially or discretely diluted compounds were pre-incubated with each of the four JAK enzymes and the substrate in white 384-well microplates (Corning) at ambient temperature for 1 h. ATP was subsequently added to initiate the kinase reactions in 10 μL total volume, with 1% DMSO. […] Kinase reactions were allowed to proceed for 1 hour at ambient temperature before a 10 μL preparation of EDTA (10 mM final concentration) and Tb-anti-pSTAT1 (pTyr701) antibody (Life Technologies, 2 nM final concentration) in TR-FRET dilution buffer (Life Technologies) was added. The plates were allowed to incubate at ambient temperature for 1 h before being read on the EnVision reader (Perkin Elmer). Emission ratio signals (520 nm/495 nm) were recorded and utilized to calculate the percent inhibition values based on DMSO and background controls.
# (§3) For dose-response analysis, percent inhibition data were plotted vs. compound concentrations, and IC50 values were determined from a 4-parameter robust fit model with the Prism software (GraphPad Software). Results were expressed as pIC50 (negative logarithm of IC50) and subsequently converted to pKi (negative logarithm of dissociation constant, Ki) using the Cheng-Prusoff equation.
# [3] = target: T2, JAK1 (Homo sapiens, UniProt P23458); assay: Biochemical JAK1 kinase assay (LanthaScreen); details: for Ki: read-out: JAK 1 (pKi) (converted)
# T2 construct: GST; purchased Life Technologies
# Procedure, shortened: (§4)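 GST-JAK + GFP-STAT1 peptide + cpd, 1 h preinc RT; ATP start, 1% DMSO, 1 h RT; stop 10 mM EDTA + 2 nM Tb-anti-pSTAT1; 1 h; TR-FRET 520/495. % inhib vs DMSO/background → IC50 (4-PL) → pKi (Cheng-Prusoff).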
# [4] = target: T3, JAK2 (Homo sapiens, UniProt O60674); assay: Biochemical JAK2 kinase assay (LanthaScreen); details: for Ki: read-out: JAK 2 (pKi) (converted)
# T3 construct: GST; purchased Life Technologies
# Procedure: as §1
# as §2, with “Elmer).” for “Elmer). Emission ratio signals (520 nm/495 nm) were recorded and utilized to calculate the percent inhibition values based on DMSO and background controls.”
# as §3
# [5] = target: T4, JAK3 (Homo sapiens, UniProt P52333); assay: Biochemical JAK3 kinase assay (LanthaScreen); set-up: GST; purchased Life Technologies; details: for JAK3 (pKi)-JAK1 (pKi): selectivity: difference of pKi JAK3 and pKi JAK1; for Ki: read-out: JAK 3 (pKi) (converted)
# T4 sequence (P52333 1-1124): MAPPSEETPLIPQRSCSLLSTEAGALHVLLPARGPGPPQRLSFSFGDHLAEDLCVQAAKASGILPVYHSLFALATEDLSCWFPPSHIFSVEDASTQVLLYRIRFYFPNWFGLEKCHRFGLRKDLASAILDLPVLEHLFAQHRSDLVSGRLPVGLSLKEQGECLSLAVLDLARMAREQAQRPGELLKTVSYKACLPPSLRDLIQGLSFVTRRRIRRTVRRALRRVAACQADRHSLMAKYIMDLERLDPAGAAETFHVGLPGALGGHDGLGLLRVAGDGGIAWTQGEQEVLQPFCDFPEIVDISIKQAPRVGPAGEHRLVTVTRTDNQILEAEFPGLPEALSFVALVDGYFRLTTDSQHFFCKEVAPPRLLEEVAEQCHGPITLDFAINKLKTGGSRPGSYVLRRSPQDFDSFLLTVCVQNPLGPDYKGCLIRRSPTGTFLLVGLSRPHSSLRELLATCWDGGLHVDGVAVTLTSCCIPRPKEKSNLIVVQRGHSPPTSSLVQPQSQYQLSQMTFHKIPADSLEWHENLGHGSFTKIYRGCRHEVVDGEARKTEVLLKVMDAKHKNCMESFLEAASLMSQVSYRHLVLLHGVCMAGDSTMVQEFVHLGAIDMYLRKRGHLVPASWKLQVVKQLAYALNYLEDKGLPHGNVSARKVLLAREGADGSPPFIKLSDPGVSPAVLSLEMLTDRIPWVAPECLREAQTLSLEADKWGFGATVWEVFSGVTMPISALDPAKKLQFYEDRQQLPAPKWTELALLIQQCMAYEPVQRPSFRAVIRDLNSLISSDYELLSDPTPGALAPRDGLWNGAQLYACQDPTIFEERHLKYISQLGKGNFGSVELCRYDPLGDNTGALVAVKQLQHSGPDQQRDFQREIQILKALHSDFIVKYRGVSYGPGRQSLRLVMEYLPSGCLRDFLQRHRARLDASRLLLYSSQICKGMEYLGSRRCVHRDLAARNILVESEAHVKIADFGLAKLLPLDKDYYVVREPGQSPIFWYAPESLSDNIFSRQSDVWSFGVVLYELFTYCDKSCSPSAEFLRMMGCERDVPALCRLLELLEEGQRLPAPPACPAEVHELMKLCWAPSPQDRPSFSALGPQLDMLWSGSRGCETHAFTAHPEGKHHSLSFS
# Procedure, shortened: as §4
# T3 sequence (O60674 whole entry): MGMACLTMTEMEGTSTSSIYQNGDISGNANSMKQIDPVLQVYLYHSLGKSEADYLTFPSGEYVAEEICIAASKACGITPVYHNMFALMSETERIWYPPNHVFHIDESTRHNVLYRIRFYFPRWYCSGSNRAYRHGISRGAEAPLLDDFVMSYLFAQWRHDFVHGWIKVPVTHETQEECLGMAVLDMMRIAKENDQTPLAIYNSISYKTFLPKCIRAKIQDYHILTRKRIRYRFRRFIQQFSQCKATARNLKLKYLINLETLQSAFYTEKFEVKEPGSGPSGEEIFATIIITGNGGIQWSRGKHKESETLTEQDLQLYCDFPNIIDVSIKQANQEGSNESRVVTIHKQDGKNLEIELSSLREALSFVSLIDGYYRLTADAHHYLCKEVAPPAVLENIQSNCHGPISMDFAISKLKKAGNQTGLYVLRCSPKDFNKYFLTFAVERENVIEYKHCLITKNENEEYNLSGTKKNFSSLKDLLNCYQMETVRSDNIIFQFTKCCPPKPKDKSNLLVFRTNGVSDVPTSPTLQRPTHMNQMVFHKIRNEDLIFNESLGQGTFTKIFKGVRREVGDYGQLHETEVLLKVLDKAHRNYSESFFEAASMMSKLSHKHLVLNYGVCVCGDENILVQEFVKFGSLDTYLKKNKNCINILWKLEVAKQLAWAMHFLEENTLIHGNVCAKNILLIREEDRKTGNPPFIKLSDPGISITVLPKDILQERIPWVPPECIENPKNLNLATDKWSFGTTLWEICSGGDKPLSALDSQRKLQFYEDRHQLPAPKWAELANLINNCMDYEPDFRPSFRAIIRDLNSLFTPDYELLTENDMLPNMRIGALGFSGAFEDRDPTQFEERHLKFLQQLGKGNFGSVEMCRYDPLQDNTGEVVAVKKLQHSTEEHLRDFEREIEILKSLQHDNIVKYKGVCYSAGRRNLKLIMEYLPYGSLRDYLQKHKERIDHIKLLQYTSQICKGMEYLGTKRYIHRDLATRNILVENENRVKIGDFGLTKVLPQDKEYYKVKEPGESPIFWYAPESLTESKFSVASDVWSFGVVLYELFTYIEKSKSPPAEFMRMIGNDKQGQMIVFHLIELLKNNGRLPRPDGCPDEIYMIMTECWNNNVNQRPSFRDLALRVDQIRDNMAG
# T2 sequence (P23458 whole entry): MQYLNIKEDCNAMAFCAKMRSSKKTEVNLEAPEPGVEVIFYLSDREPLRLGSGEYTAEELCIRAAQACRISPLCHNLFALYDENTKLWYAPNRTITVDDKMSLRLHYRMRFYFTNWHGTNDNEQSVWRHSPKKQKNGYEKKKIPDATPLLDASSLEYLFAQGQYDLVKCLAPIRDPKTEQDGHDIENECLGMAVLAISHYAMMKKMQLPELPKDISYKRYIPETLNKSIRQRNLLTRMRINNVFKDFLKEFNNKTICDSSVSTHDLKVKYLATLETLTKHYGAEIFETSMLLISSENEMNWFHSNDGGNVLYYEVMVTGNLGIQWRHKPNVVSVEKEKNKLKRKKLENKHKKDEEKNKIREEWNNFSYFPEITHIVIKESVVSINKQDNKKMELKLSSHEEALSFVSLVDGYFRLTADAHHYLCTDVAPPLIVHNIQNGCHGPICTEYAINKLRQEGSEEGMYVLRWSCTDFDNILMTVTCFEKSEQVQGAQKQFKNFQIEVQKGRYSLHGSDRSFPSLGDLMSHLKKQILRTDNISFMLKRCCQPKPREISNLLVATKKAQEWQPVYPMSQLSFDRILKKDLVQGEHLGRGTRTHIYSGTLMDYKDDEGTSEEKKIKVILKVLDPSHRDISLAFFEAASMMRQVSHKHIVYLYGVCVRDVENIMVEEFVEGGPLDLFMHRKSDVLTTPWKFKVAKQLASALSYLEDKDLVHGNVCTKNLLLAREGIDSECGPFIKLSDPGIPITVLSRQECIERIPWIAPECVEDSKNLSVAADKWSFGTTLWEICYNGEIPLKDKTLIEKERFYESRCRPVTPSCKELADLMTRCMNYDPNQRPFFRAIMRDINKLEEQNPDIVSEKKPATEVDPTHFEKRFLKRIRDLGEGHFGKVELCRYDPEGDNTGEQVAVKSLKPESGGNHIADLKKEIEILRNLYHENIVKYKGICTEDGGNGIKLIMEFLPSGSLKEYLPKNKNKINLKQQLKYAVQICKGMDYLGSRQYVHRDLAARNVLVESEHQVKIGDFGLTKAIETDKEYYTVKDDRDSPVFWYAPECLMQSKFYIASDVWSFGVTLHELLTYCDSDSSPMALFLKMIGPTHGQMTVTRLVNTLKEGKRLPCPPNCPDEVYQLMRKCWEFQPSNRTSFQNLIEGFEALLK
# T1 sequence (P29597 whole entry): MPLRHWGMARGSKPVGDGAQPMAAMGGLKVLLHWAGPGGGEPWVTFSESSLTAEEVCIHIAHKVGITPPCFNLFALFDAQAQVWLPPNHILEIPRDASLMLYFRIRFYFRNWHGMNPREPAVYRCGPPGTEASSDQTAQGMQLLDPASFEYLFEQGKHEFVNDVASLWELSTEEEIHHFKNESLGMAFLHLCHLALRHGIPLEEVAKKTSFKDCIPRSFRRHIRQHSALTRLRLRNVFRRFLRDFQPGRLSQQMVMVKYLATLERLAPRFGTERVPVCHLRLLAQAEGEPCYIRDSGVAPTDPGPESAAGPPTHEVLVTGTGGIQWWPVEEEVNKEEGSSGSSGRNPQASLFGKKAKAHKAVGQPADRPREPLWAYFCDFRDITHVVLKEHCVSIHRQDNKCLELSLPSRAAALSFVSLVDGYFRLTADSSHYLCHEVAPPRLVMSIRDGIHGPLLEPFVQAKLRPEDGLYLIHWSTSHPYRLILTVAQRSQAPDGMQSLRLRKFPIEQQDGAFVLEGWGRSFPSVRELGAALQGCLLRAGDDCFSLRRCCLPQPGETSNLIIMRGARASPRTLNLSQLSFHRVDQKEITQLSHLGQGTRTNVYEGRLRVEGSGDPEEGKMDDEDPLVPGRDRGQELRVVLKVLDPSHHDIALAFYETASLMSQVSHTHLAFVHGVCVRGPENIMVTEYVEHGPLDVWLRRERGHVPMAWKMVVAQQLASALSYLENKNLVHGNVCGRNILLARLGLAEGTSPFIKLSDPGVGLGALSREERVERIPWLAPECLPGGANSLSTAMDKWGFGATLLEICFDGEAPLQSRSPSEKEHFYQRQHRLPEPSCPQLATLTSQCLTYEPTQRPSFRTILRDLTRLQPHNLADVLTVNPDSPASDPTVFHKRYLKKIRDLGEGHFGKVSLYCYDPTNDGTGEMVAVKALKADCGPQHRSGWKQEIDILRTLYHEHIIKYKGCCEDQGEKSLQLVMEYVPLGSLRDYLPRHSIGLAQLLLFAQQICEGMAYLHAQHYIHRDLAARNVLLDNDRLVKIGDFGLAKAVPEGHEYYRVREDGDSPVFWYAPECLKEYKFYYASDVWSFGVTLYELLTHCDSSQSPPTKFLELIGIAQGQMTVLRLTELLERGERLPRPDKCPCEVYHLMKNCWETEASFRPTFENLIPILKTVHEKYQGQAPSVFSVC
smiles,measurement,setting,value
CN(C)C/C=C/C(=O)N1CC[C@H](COc2cc(-c3ccc(O)c(Cl)c3)cc3[nH]ncc23)C1 [Compound 2-2],Tall-1 (pIC50),[1],B (a pIC50 value between 6.7 (included) and 7.5 (IC50 between 200 nM and 32 nM))
same,Tyk 2 (pKi),[2],E (a pKi value of 7 or below (Ki of 100 nM or above))
same,JAK 1 (pKi),[3],E (a pKi value of 7 or below (Ki of 100 nM or above))
same,JAK 2 (pKi),[4],D (a pKi value between 7 and 8 (Ki between 100 nM and 10 nM))
same,JAK 3 (pKi),[5],B (a pKi value between 9 and 10 (Ki between 1 nM and 0.1 nM))
same,JAK3 (pKi)-JAK1 (pKi),[5],A (a value of 3 or above)
C=CC(=O)N1CC[C@H](COc2cc(-c3ccc(O)c(Cl)c3)cc3[nH]ncc23)C1 [Compound 2-3],Tall-1 (pIC50),[1],B (a pIC50 value between 6.7 (included) and 7.5 (IC50 between 200 nM and 32 nM))
same,Tyk 2 (pKi),[2],E (a pKi value of 7 or below (Ki of 100 nM or above))
same,JAK 1 (pKi),[3],E (a pKi value of 7 or below (Ki of 100 nM or above))
same,JAK 2 (pKi),[4],D (a pKi value between 7 and 8 (Ki between 100 nM and 10 nM))
same,JAK 3 (pKi),[5],B (a pKi value between 9 and 10 (Ki between 1 nM and 0.1 nM))
same,JAK3 (pKi)-JAK1 (pKi),[5],A (a value of 3 or above)
C=CC(=O)N1CC[C@H](COc2cc(-c3ccc(O)c(F)c3)cc3[nH]ncc23)C1 [Compound 2-5],Tall-1 (pIC50),[1],B (a pIC50 value between 6.7 (included) and 7.5 (IC50 between 200 nM and 32 nM))
same,Tyk 2 (pKi),[2],E (a pKi value of 7 or below (Ki of 100 nM or above))
same,JAK 1 (pKi),[3],E (a pKi value of 7 or below (Ki of 100 nM or above))
same,JAK 2 (pKi),[4],D (a pKi value between 7 and 8 (Ki between 100 nM and 10 nM))
same,JAK 3 (pKi),[5],B (a pKi value between 9 and 10 (Ki between 1 nM and 0.1 nM))
same,JAK3 (pKi)-JAK1 (pKi),[5],A (a value of 3 or above)
C=CC(=O)N1CC[C@H](COc2nc(-c3ccc(O)cc3)cc3[nH]ncc23)C1 [Compound 2-8],Tall-1 (pIC50),[1],B (a pIC50 value between 6.7 (included) and 7.5 (IC50 between 200 nM and 32 nM))
same,Tyk 2 (pKi),[2],E (a pKi value of 7 or below (Ki of 100 nM or above))
same,JAK 1 (pKi),[3],E (a pKi value of 7 or below (Ki of 100 nM or above))
same,JAK 2 (pKi),[4],D (a pKi value between 7 and 8 (Ki between 100 nM and 10 nM))
same,JAK 3 (pKi),[5],B (a pKi value between 9 and 10 (Ki between 1 nM and 0.1 nM))
same,JAK3 (pKi)-JAK1 (pKi),[5],A (a value of 3 or above)
C=CC(=O)N1CC[C@H](COc2nc(-c3ccc(O)c(F)c3)cc3[nH]ncc23)C1 [Compound 2-10],Tall-1 (pIC50),[1],A (a pIC50 value≥7.5 (IC50≤32 nM))
same,Tyk 2 (pKi),[2],E (a pKi value of 7 or below (Ki of 100 nM or above))
same,JAK 1 (pKi),[3],E (a pKi value of 7 or below (Ki of 100 nM or above))
same,JAK 2 (pKi),[4],D (a pKi value between 7 and 8 (Ki between 100 nM and 10 nM))
same,JAK 3 (pKi),[5],B (a pKi value between 9 and 10 (Ki between 1 nM and 0.1 nM))
same,JAK3 (pKi)-JAK1 (pKi),[5],A (a value of 3 or above)
C=CC(=O)N1CC[C@H](COc2nc(-c3ccc(O)c(Cl)c3)nc3[nH]ncc23)C1 [Compound 2-11],Tall-1 (pIC50),[1],B (a pIC50 value between 6.7 (included) and 7.5 (IC50 between 200 nM and 32 nM))
same,Tyk 2 (pKi),[2],E (a pKi value of 7 or below (Ki of 100 nM or above))
same,JAK 1 (pKi),[3],E (a pKi value of 7 or below (Ki of 100 nM or above))
same,JAK 2 (pKi),[4],E (a pKi value of 7 or below (Ki of 100 nM or above))
same,JAK 3 (pKi),[5],B (a pKi value between 9 and 10 (Ki between 1 nM and 0.1 nM))
same,JAK3 (pKi)-JAK1 (pKi),[5],A (a value of 3 or above)
C=CC(=O)N1CC[C@H](COc2nc(-c3ccc(O)c(F)c3)nc3[nH]ncc23)C1 [Compound 2-15],Tall-1 (pIC50),[1],B (a pIC50 value between 6.7 (included) and 7.5 (IC50 between 200 nM and 32 nM))
same,Tyk 2 (pKi),[2],E (a pKi value of 7 or below (Ki of 100 nM or above))
same,JAK 1 (pKi),[3],E (a pKi value of 7 or below (Ki of 100 nM or above))
same,JAK 2 (pKi),[4],E (a pKi value of 7 or below (Ki of 100 nM or above))
same,JAK 3 (pKi),[5],A (a pKi value≥10 (Ki≤0.1 nM))
same,JAK3 (pKi)-JAK1 (pKi),[5],A (a value of 3 or above)
C=CC(=O)N1CC[C@H](COc2cc(-c3ccc(O)c(F)c3)nc3[nH]ncc23)C1 [Compound 2-17],Tall-1 (pIC50),[1],B (a pIC50 value between 6.7 (included) and 7.5 (IC50 between 200 nM and 32 nM))
same,Tyk 2 (pKi),[2],E (a pKi value of 7 or below (Ki of 100 nM or above))
same,JAK 1 (pKi),[3],E (a pKi value of 7 or below (Ki of 100 nM or above))
same,JAK 2 (pKi),[4],E (a pKi value of 7 or below (Ki of 100 nM or above))
same,JAK 3 (pKi),[5],A (a pKi value≥10 (Ki≤0.1 nM))
same,JAK3 (pKi)-JAK1 (pKi),[5],A (a value of 3 or above)
C=CC(=O)N1CC(COc2cc(-c3ccc(O)cc3)cc3[nH]ncc23)C1 [Compound 3-1],IC50,[1],< 0.0316 µM
same,Ki,[2],> 0.1 µM
same,Ki,[3],> 0.1 µM
same,Ki,[4],> 0.1 µM
same,Ki,[5],0.0001 to 0.001 µM
same,JAK3 (pKi)-JAK1 (pKi),[5],A (a value of 3 or above)
CN(C)C/C=C/C(=O)N1CC(COc2cc(-c3ccc(O)c(Cl)c3)cc3[nH]ncc23)C1 [Compound 3-2],IC50,[1],0.0316 to 0.2 µM
same,Ki,[2],> 0.1 µM
same,Ki,[3],> 0.1 µM
same,Ki,[4],> 0.1 µM
same,Ki,[5],0.0001 to 0.001 µM
same,JAK3 (pKi)-JAK1 (pKi),[5],A (a value of 3 or above)
C=CC(=O)N1CC(COc2cc(-c3ccc(O)c(Cl)c3)cc3[nH]ncc23)C1 [Compound 3-3],IC50,[1],< 0.0316 µM
same,Ki,[2],> 0.1 µM
same,Ki,[3],> 0.1 µM
same,Ki,[4],> 0.1 µM
same,Ki,[5],0.0001 to 0.001 µM
same,JAK3 (pKi)-JAK1 (pKi),[5],A (a value of 3 or above)
C=CC(=O)N1CC(COc2cc(-c3ccc(O)c(F)c3)cc3[nH]ncc23)C1 [Compound 3-4],IC50,[1],< 0.0316 µM
same,Ki,[2],> 0.1 µM
same,Ki,[3],> 0.1 µM
same,Ki,[4],0.01 to 0.1 µM
same,Ki,[5],0.0001 to 0.001 µM
same,JAK3 (pKi)-JAK1 (pKi),[5],A (a value of 3 or above)
CN(C)C/C=C/C(=O)N1CC(F)(COc2cc(-c3ccc(O)cc3)cc3[nH]ncc23)C1 [Compound 3-5],Tall-1 (pIC50),[1],A (a pIC50 value≥7.5 (IC50≤32 nM))
same,Tyk 2 (pKi),[2],E (a pKi value of 7 or below (Ki of 100 nM or above))
same,JAK 1 (pKi),[3],D (a pKi value between 7 and 8 (Ki between 100 nM and 10 nM))
same,JAK 2 (pKi),[4],D (a pKi value between 7 and 8 (Ki between 100 nM and 10 nM))
same,JAK 3 (pKi),[5],B (a pKi value between 9 and 10 (Ki between 1 nM and 0.1 nM))
same,JAK3 (pKi)-JAK1 (pKi),[5],B (a value of 2.3 to 3)
